Legend:
[1] = system: CHO-K1 cells; test: comet assay of DNA repair over varied durations of time; type: cell-based; settings: treated CHO-K1 cells layered onto wells for varied durations of time; FIG. 12
Method: In another sample comet assay, CHO-K1 cells were treated with 9-aminoacridine and the treated cells were layered onto select wells on the glass slide for varied durations of time. The cells were allowed to soak in a lysis solution and then an electrophoresis buffer while in the slide holder assembly. The cells were then electrophoresed while in the slide holder assembly and then imaged using the ToxInsight IVT Platform.

[2] = system: CHO-K1 cells; test: comet assay on CHO-K1 cells in slide holder assembly; type: cell-based; settings: CHO-K1 cells treated with 100 μM for one hour; imaged with ToxInsight IVT platform
Method: Exemplary comet assays were performed using the above devices and methods. For example, in one comet assay, comets were successfully generated and analyzed using CHO-K1 cells on a 96-well glass slide. To ensure that comets would be produced, half of the CHO-K1 cells were treated with 100 μM 9-aminoacridine for one hour. A 96-well glass slide was secured within a slide holder assembly and half of the slide was layered with the treated CHO-K1 cells while the other half was layered with untreated CHO-K1 cells. The cells were allowed to soak in a lysis solution and then an electrophoresis buffer while in the slide holder assembly. The cells were then electrophoresed while in the slide holder assembly and then imaged using the ToxInsight IVT platform.
In FIG. 11, the untreated CHO-K1 cells 342 are shown in columns 1-6 (i.e., the left half of the image) and the treated CHO-K1 cells 344 are shown in columns 7-12 (i.e., on the right half). […] In the sample comet assay, the ToxInsight® IVT Platform was used as the cell imaging system to scan 25 fields/well. Using the Comet.V4 BioApplication software developed by Cellomics Inc., 14,075 comets were automatically selected by the cell imaging system within a time period of 20 minutes, 29 seconds. […] This translates to over one million comets that could be analyzed per 24-hour day.

Nc1c2ccccc2nc2ccccc12 [9-aminoacridine]
DNA repair quantified in comets [1]: time-dependent response of DNA repair | comet formation (DNA damage) [2]: comets were formed and imaged on the treated cells

From patent US9128046B2, “Slide holder assembly for comet assay” (Cellomics, Inc., priority 2011, dated 2015)
